The target in the assay is T1, BTK (Homo sapiens, UniProt Q06187).
T1 construct: endogenous in cells; host or cells: TMD-8 cells
T1 sequence (Q06187 whole entry): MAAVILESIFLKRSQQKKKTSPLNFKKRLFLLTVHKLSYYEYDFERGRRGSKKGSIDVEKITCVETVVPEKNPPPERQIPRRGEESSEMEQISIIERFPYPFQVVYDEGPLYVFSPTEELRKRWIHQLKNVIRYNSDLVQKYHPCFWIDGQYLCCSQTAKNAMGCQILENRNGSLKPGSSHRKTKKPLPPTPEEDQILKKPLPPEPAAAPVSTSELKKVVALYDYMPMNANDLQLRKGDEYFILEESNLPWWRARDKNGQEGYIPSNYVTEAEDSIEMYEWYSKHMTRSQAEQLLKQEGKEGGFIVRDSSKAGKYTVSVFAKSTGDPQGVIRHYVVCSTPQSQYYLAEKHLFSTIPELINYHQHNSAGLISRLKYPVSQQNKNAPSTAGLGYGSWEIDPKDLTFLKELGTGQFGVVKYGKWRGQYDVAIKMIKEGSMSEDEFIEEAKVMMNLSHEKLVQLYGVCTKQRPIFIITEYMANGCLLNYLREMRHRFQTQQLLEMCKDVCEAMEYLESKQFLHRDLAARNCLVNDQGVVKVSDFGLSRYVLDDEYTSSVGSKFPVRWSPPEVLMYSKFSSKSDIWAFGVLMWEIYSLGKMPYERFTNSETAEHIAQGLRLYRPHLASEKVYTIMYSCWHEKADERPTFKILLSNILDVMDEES
Briefly: BTK degradation in TMD-8 cells, HTRF assay after 6 h treatment. As to conditions: IC50 (DC50) of BTK degradation. The format is cell-based. The essentials:
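TMD-8 cells treated for 6 h with 8 compound doses in 6-fold dilution steps from a 1 mM 500× DMSO stock (0.2% DMSO), then lysed 30 min at room temperature. BTK in lysate detected by HTRF (665/620 nm) after overnight antibody incubation; DC50 from four-parameter curve fit.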
For the molecule `Cc1cc(-c2n[nH]c3ncc(-c4ccc(N5CC6(CN(CC7CCN(c8ccc(N9CCC(=O)NC9=O)cc8)CC7)C6)C5)cc4)cc23)ccc1[C@@H](C)NC(=O)c1nc(C(C)(C)C)no1` [Example 212, (R)-3-(tert-butyl)-N-(1-(4-(5-(4-(6-((1-(4-(2,4-dioxotetrahydropyrimidin-1(2H)-yl)phenyl)piperidin-4-yl)methyl)-2,6-diazaspiro[3.3]heptan-2-yl)phenyl)-1H-pyrazolo[3,4-b]pyridin-3-yl)-2-methylphenyl)ethyl)-1,2,4-oxadiazole-5-carboxamide], the DC50 amounted to 1.95 nM.
`Cc1cc(-c2n[nH]c3ncc(-c4ccc(N5CCN(CC6CCN(c7ccc(N8CCC(=O)NC8=O)cc7)CC6)CC5)cc4)cc23)ccc1[C@@H](C)NC(=O)c1nc(C2(C)CC2)no1` [Example 213, (R)—N-(1-(4-(5-(4-(4-((1-(4-(2,4-dioxotetrahydropyrimidin-1(2H)-yl)phenyl)piperidin-4-yl)methyl)piperazin-1-yl)phenyl)-1H-pyrazolo[3,4-b]pyridin-3-yl)-2-methylphenyl)ethyl)-3-(1-methylcyclopropyl)-1,2,4-oxadiazole-5-carboxamide] came in with a DC50 of 5.04 nM.
For `Cc1cc(-c2n[nH]c3ncc(-c4ccc(N5CCN(C6CC(c7ccc(C8CCC(=O)NC8=O)cc7)C6)CC5)cc4)cc23)ccc1[C@@H](C)NC(=O)c1noc(C(C)(C)C)n1` (stereo partly drawn) [Example 214, 5-(tert-butyl)-N-((1R)-1-(4-(5-(4-(4-((1s,3s)-3-(4-(2,6-dioxopiperidin-3-yl)phenyl)cyclobutyl)piperazin-1-yl)phenyl)-1H-pyrazolo[3,4-b]pyridin-3-yl)-2-methylphenyl)ethyl)-1,2,4-oxadiazole-3-carboxamide] the value was 1.3 nM; for `Cc1cc(-c2n[nH]c3ncc(-c4ccc(N5CCN(Cc6ccc(C7CCC(=O)NC7=O)c(F)c6)CC5)cc4)cc23)ccc1[C@@H](C)NC(=O)c1nc(C(C)(C)C)no1` (stereo partly drawn) [Example 215, 3-(tert-butyl)-N-((1R)-1-(4-(5-(4-(4-(4-(2,6-dioxopiperidin-3-yl)-3-fluorobenzyl)piperazin-1-yl)phenyl)-1H-pyrazolo[3,4-b]pyridin-3-yl)-2-methylphenyl)ethyl)-1,2,4-oxadiazole-5-carboxamide], 11.8 nM.
As to `Cc1cc(-c2n[nH]c3ncc(-c4ccc(N5CCN(C6CCC(c7ccc(C8CCC(=O)NC8=O)c(F)c7)C6)CC5)cc4)cc23)ccc1[C@@H](C)NC(=O)c1nc(C(C)(C)C)no1` (stereo partly drawn) [Example 216, 3-(tert-butyl)-N-((1R)-1-(4-(5-(4-(4-(3-(4-(2,6-dioxopiperidin-3-yl)-3-fluorophenyl)cyclopentyl)piperazin-1-yl)phenyl)-1H-pyrazolo[3,4-b]pyridin-3-yl)-2-methylphenyl)ethyl)-1,2,4-oxadiazole-5-carboxamide], the DC50 came to 10.5 nM. This DC50 and that of the molecule before are within 1.5-fold of each other.
The molecule `Cc1cc(-c2n[nH]c3ncc(-c4ccc(N5CCN(CCc6ccc(N7CC(=O)NC7=O)cc6)CC5)cc4)cc23)ccc1[C@@H](C)NC(=O)c1nc(C(C)(C)C)no1` [Example 217, (R)-3-(tert-butyl)-N-(1-(4-(5-(4-(4-(4-(2,4-dioxoimidazolidin-1-yl)phenethyl)piperazin-1-yl)phenyl)-1H-pyrazolo[3,4-b]pyridin-3-yl)-2-methylphenyl)ethyl)-1,2,4-oxadiazole-5-carboxamide] returned a DC50 of 1960 nM.
In the case of `Cc1cc(-c2n[nH]c3ncc(-c4ccc(N5CCN(CC6CCN(c7ccc(N8CC(=O)NC8=O)cc7)CC6)CC5)cc4)cc23)ccc1[C@@H](C)NC(=O)c1nc(C(C)(C)C)no1` [Example 218, (R)-3-(tert-butyl)-N-(1-(4-(5-(4-(4-((1-(4-(2,4-dioxoimidazolidin-1-yl)phenyl)piperidin-4-yl)methyl)piperazin-1-yl)phenyl)-1H-pyrazolo[3,4-b]pyridin-3-yl)-2-methylphenyl)ethyl)-1,2,4-oxadiazole-5-carboxamide] it was 19 nM; in that of `Cc1c(CNC(=O)c2nc(C(C)(C)C)no2)ccc(-c2n[nH]c3ncc(-c4ccc(C5CCN(CC6CCN(c7ccc(N8CCC(=O)NC8=O)cc7)CC6)CC5)cc4)cc23)c1F` [Example 219, 3-(tert-butyl)-N-(4-(5-(4-(1-((1-(4-(2,4-dioxotetrahydropyrimidin-1(2H)-yl)phenyl)piperidin-4-yl)methyl)piperidin-4-yl)phenyl)-1H-pyrazolo[3,4-b]pyridin-3-yl)-3-fluoro-2-methylbenzyl)-1,2,4-oxadiazole-5-carboxamide], 2.23 nM; in that of `Cc1cc(-c2n[nH]c3ncc(-c4ccc(C5CCN(CC6CCN(c7ccc(N8CCC(=O)NC8=O)cc7)CC6)CC5)cc4)cc23)c(F)cc1CNC(=O)c1nc(C(C)(C)C)no1` [Example 220, 3-(tert-butyl)-N-(4-(5-(4-(1-((1-(4-(2,4-dioxotetrahydropyrimidin-1(2H)-yl)phenyl)piperidin-4-yl)methyl)piperidin-4-yl)phenyl)-1H-pyrazolo[3,4-b]pyridin-3-yl)-5-fluoro-2-methylbenzyl)-1,2,4-oxadiazole-5-carboxamide], 3.85 nM.
In the case of `Cc1c(CNC(=O)c2noc(C(C)(C)C)n2)ccc(-c2n[nH]c3ncc(-c4ccc(C5CCN(CC6CCN(c7ccc(N8CCC(=O)NC8=O)cc7)CC6)CC5)cc4)cc23)c1F` [Example 221, 5-(tert-butyl)-N-(4-(5-(4-(1-((1-(4-(2,4-dioxotetrahydropyrimidin-1(2H)-yl)phenyl)piperidin-4-yl)methyl)piperidin-4-yl)phenyl)-1H-pyrazolo[3,4-b]pyridin-3-yl)-3-fluoro-2-methylbenzyl)-1,2,4-oxadiazole-3-carboxamide] it was 1.12 nM; in that of `Cc1cc(-c2n[nH]c3ncc(-c4ccc(C5CCN(CC6CCN(c7ccc(N8CCC(=O)NC8=O)cc7)CC6)CC5)cc4)cc23)c(F)cc1CNC(=O)c1noc(C(C)(C)C)n1` [Example 222, 5-(tert-butyl)-N-(4-(5-(4-(1-((1-(4-(2,4-dioxotetrahydropyrimidin-1(2H)-yl)phenyl)piperidin-4-yl)methyl)piperidin-4-yl)phenyl)-1H-pyrazolo[3,4-b]pyridin-3-yl)-5-fluoro-2-methylbenzyl)-1,2,4-oxadiazole-3-carboxamide], 16.1 nM; in that of `Cc1cc(-c2n[nH]c3ncc(-c4ccc(N5CCN(C6CC(c7ccc([C@H]8CCC(=O)NC8=O)cc7)C6)CC5)cc4)cc23)ccc1[C@@H](C)NC(=O)c1noc(C(C)(C)C)n1` (stereo partly drawn) [Example 223, 5-(tert-butyl)-N—((R)-1-(4-(5-(4-(4-((1S,3r)-3-(4-((S)-2,6-dioxopiperidin-3-yl)phenyl)cyclobutyl)piperazin-1-yl)phenyl)-1H-pyrazolo[3,4-b]pyridin-3-yl)-2-methylphenyl)ethyl)-1,2,4-oxadiazole-3-carboxamide], 1.56 nM.
In the case of `Cc1cc(-c2n[nH]c3ncc(-c4ccc(N5CCN(C6CC(c7ccc([C@H]8CCC(=O)NC8=O)cc7)C6)CC5)cc4)cc23)ccc1[C@@H](C)NC(=O)c1noc(C(C)(C)C)n1` (stereo partly drawn) [Example 224, 5-(tert-butyl)-N—((R)-1-(4-(5-(4-(4-((1S,3r)-3-(4-((R)-2,6-dioxopiperidin-3-yl)phenyl)cyclobutyl)piperazin-1-yl)phenyl)-1H-pyrazolo[3,4-b]pyridin-3-yl)-2-methylphenyl)ethyl)-1,2,4-oxadiazole-3-carboxamide] it was 6.16 nM; in that of `Cc1cc(-c2n[nH]c3ncc(-c4ccc(N5CCN(CC6CCN(c7ccc(N8CCC(=O)NC8=O)cc7)CC6)CC5)cc4)cc23)ccc1[C@@H](C)NC(=O)c1nnc(C(C)(C)C)o1` [Example 225, (R)-5-(tert-butyl)-N-(1-(4-(5-(4-(4-((1-(4-(2,4-dioxotetrahydropyrimidin-1(2H)-yl)phenyl)piperidin-4-yl)methyl)piperazin-1-yl)phenyl)-1H-pyrazolo[3,4-b]pyridin-3-yl)-2-methylphenyl)ethyl)-1,3,4-oxadiazole-2-carboxamide], 9.45 nM; in that of `Cc1cc(-c2n[nH]c3ncc(-c4ccc(N5CCN(CCOc6cccc7c6C(=O)N([C@@H]6CCC(=O)NC6=O)C7)CC5)cc4)cc23)ccc1[C@@H](C)NC(=O)c1nc(C(C)(C)C)no1` [Example 226, 3-(tert-butyl)-N—((R)-1-(4-(5-(4-(4-(2-((2-((R)-2,6-dioxopiperidin-3-yl)-3-oxoisoindolin-4-yl)oxy)ethyl)piperazin-1-yl)phenyl)-1H-pyrazolo[3,4-b]pyridin-3-yl)-2-methylphenyl)ethyl)-1,2,4-oxadiazole-5-carboxamide], 3.04 nM.
With `Cc1cc(-c2n[nH]c3ncc(-c4ccc(C5CCN(CCc6ccc(C7CCC(=O)NC7=O)cc6)CC5)cc4)cc23)ccc1[C@@H](C)NC(=O)c1noc(C(C)(C)C)n1` (stereo partly drawn) [Example 227, 5-(tert-butyl)-N-((1R)-1-(4-(5-(4-(1-(4-(2,6-dioxopiperidin-3-yl)phenethyl)piperidin-4-yl)phenyl)-1H-pyrazolo[3,4-b]pyridin-3-yl)-2-methylphenyl)ethyl)-1,2,4-oxadiazole-3-carboxamide], the DC50 is 3.93 nM.
For `Cc1cc(-c2n[nH]c3ncc(-c4ccc(N5CCN(CC6CCN(c7ccc(N8CCC(=O)NC8=O)c(C)c7)CC6)CC5)nc4)cc23)ccc1CNC(=O)c1nc(C(C)(C)C)no1` [Example 228, 3-(tert-butyl)-N-(4-(5-(6-(4-((1-(4-(2,4-dioxotetrahydropyrimidin-1(2H)-yl)-3-methylphenyl)piperidin-4-yl)methyl)piperazin-1-yl)pyridin-3-yl)-1H-pyrazolo[3,4-b]pyridin-3-yl)-2-methylbenzyl)-1,2,4-oxadiazole-5-carboxamide] the value was 2.02 nM; for `Cc1cc(-c2n[nH]c3ncc(-c4ccc(N5CCN(CCc6ccc(C7CCC(=O)NC7=O)cn6)CC5)cc4)cc23)ccc1CNC(=O)c1noc(C(C)(C)C)n1` (stereo not drawn) [Example 229, 5-(tert-butyl)-N-(4-(5-(4-(4-(2-(5-(2,6-dioxopiperidin-3-yl)pyridin-2-yl)ethyl)piperazin-1-yl)phenyl)-1H-pyrazolo[3,4-b]pyridin-3-yl)-2-methylbenzyl)-1,2,4-oxadiazole-3-carboxamide], 0.427 nM.

Broadly, the DC50 is the concentration giving 50% degradation. Read a low DC50 as a more potent degrader.
